Data: patent US8563596B2, “Enantiomerically pure compounds for the treatment of proliferative disorders” (Piramal Enterprises Limited, priority 2006, dated 2013)
Like-named read-outs stand apart in the source and are kept apart here. Values belong to the compound of their own block, whether it stands above or below them.

Experiments:
CDK2-cyclin E = molecular target: T1, CDK2-cyclin E (Homo sapiens, UniProt P24941); assay: CDK2/Cyclin E kinase assay (32P phosphorylation of GST-Rb, filter plate); assay type: biochemical; conditions: 30 min at 30° C.; GST-Rb substrate
T1 construct: made in house; host or cells: Sf9 insect cells (baculovirus)
Excerpt: (§1) CDK4/Cyclin D1 Kinase Assay and CDK2/Cyclin E Kinase Assay
(§2) The assays measure phosphorylation of retinoblastoma protein (Rb) by CDK4 or CDK2 upon activation by cyclin D1 or cyclin E, respectively, through the transfer of (γ^32P)-phosphate from γ^32P-ATP in a 96-well filter plate assay.
(§3) CDK4 or CDK2 was co-expressed with cyclin D1 or cyclin E, respectively, by a baculovirus expression system in insect cells. For this, 1×10^7 Sf9 cells were coinfected with baculoviruses containing human CDK-4 or 2 and cyclin D1 or E genes and after 72 hours cells were lysed in 500 μl of a lysis buffer (50 mM HEPES (pH 7.5), 10 mM MgCl2, 1 mM DTT, 5 μg/ml of aprotinin, 5 μg/ml of leupeptin, 0.1 mM NaF, 0.2 mM phenylmethylsulfonyl fluoride (PMSF), and sodium orthovanadate. Centrifuged lysate was purified on a GST-sepharose column. Purity of the proteins was checked by SDS-PAGE followed by western blots using specific antibodies (Santacruz Biotec, USA) to CDK4 or CDK2.
(§4) GST-retinoblastoma (Rb) (aa 776-928) fusion protein is expressed in the bacteria E. coli and purified by GSH-Sepharose affinity chromatography. The GST-Rb bound to these beads served as the substrate in the assay.
(§5) Quantitation was by scintillation detection of (^32P)-GST-Rb in 96-well filter plates using Top Count scintillation 96-well counter (Packard, USA).
The CDK4 or CDK2 enzyme assay was run in 96-well format using Millipore ultiscreen filtration plates. All assay steps took place in a single filter plate (Unifilter plates, Packard, USA). The filtration wells were pre-wet with kinase buffer (100 μl/well) and the solution was then removed by the application of vacuum, with the filter plate on a vacuum manifold and the vacuum on. 50 μl of GST-Rb bound to GSH-Sepharose beads in kinase buffer (0.5 μg GST-Rb/50 μl) was added to each well and vacuum was applied to remove the buffer. A further 25 μl of a reaction mix containing ATP (cold+hot) and phosphatase inhibitors diluted in kinase buffer were added to each well, followed by the addition of test compound (4× final concentration in kinase buffer) or kinase buffer (control) in an additional 25 μl volume. Finally 50 μl (100 ng) of human CDK-4/D1 or CDK-2/E enzyme in kinase buffer was added to each well to initiate the reaction. The reaction was incubated for 30 min at 30° C. After the reaction was complete, vacuum was applied and the plate was washed with the wash buffer (TNEN buffer) three times. The filter plate was air-dried and placed in a Multiscreen adapter plate. To each well, 30 μl Packard Microscint-O cocktail was added and the plate was covered with a Top-Seal A film. The plate was counted in a Packard Top Count Scintillation Counter for 10 min. […]

A-549 (Lung) [1] = assay: In vitro cell proliferation, 3H-Thymidine uptake assay; assay type: cell-based, human; conditions: cells harvested after 72 hours
Procedure: (§6) Exponentially growing cultures of […] human cancerous cell lines (Calu1 lung, A-549 lung, HT-29 colon, HL-60 Promyelocytic Leukemia, PC-3 Prostate, H-460 Lung, MDA-MB-231 Breast, MCF-7 Breast, HeLa Cervix, Colo-205 Colon, H9 Lymphoma (T Cells), U-937 Histiocytic Lymphoma (monocytes) and CaCO-2 Colon) obtained from NCCS, Pune, India were used. The in vitro cell proliferation (NCl, USA protocol) and cytotoxicity assays were carried out using standard procedures viz. ^3H-Thymidine uptake and MTS assay, respectively (For ^3H-Thymidine uptake: Cell Biology, A Laboratory Handbook, 1998, Vol 1 Ed Julio E. Celis, and For MTS assay: Promega Protocol, USA, 2000). In the ^3H-Thymidine uptake assay, cells were harvested after 72 hours onto GF/B unifilter plates (Packard, USA) using a Packard Filtermate Universal harvester and the plates were counted on a Packard TopCount 96-well liquid scintillation counter. The concentration of compound at which 50% of proliferative activity was inhibited (IC50) and the degree of toxicity of compound were calculated for representative compounds and their pharmaceutically acceptable salts described in the Examples.

HT-29 (Colon) [2] = assay: as above; assay type: cell-based, human; conditions: cells harvested after 72 hours
Procedure: as §6

A-549 (Lung) [3] = assay type: cell-based, human
Procedure: as §6

Calu1 (Lung) [4] = assay type: cell-based, human
Procedure: as §6

HT-29 (Colon) [5] = assay type: cell-based, human
Procedure: as §6

CDK4-cyclin D1 = molecular target: T2, CDK4-cyclin D1 (Homo sapiens, UniProt P11802); assay: CDK4/Cyclin D1 kinase assay (32P phosphorylation of GST-Rb, filter plate); assay type: biochemical; conditions: 30 min at 30° C.; GST-Rb substrate
T2 construct: made in house; host or cells: Sf9 insect cells (baculovirus)
Excerpt: as §1, §2, §3, §4, §5
The CDK4 or CDK2 enzyme assay was run in 96-well format using Millipore ultiscreen filtration plates. All assay steps took place in a single filter plate (Unifilter plates, Packard, USA). The filtration wells were pre-wet with kinase buffer (100 μl/well) and the solution was then removed by the application of vacuum, with the filter plate on a vacuum manifold and the vacuum on. 50 μl of GST-Rb bound to GSH-Sepharose beads in kinase buffer (0.5 μg GST-Rb/50 μl) was added to each well and vacuum was applied to remove the buffer. […] The plate was counted in a Packard Top Count Scintillation Counter for 10 min. […]

Calu1 (Lung) [6] = assay: In vitro cell proliferation, 3H-Thymidine uptake assay; assay type: cell-based, human; conditions: cells harvested after 72 hours
Procedure: as §6

T2 sequence (P11802 whole entry): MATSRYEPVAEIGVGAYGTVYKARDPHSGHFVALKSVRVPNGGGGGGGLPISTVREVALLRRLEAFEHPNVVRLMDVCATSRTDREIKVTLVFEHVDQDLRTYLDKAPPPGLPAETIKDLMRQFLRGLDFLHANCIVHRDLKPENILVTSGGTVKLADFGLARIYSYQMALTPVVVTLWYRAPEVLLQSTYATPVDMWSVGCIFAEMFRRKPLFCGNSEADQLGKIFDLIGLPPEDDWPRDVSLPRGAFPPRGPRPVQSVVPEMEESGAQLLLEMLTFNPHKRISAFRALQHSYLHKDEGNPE
T2 sequence (P24385 whole entry partner): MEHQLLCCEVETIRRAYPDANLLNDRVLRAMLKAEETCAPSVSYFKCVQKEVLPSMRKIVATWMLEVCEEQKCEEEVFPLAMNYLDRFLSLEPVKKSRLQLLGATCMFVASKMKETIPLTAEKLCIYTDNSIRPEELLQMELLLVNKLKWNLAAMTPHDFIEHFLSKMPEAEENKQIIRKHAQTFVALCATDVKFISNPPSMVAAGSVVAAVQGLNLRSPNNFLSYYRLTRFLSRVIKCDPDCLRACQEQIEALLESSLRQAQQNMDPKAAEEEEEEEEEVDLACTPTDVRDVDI

Compound: (−)-trans-2-(2-Chlorophenyl)-5,7-dihydroxy-8-(2-hydroxymethyl-1-methyl pyrrolidin-3-yl)-chromen-4-one hydrochloride [Example 96-(F)]
- IC50 (CDK2-cyclin E): 21 µM
- IC50 (A-549 (Lung) [1]): 10 µM
- IC50 (HT-29 (Colon) [2]): 25 µM
- IC50 (A-549 (Lung) [3]): 16000 nM
- IC50 (Calu1 (Lung) [4]): 16300 nM
- IC50 (HT-29 (Colon) [5]): 17900 nM

Compound: (+)-trans-2-(2-Chloro-4-nitrophenyl)-5,7-dihydroxy-8-(2-hydroxymethyl-1-methylpyrrolidin-3-yl)-chromen-4-one hydrochloride [Example 50]
- IC50 (CDK4-cyclin D1): 0.045 µM
- IC50 (CDK2-cyclin E): 1.7 µM
- IC50 (A-549 (Lung) [1]): 1.2 µM
- IC50 (Calu1 (Lung) [6]): < 0.3 µM
- IC50 (HT-29 (Colon) [2]): 1.5 µM
- IC50 (A-549 (Lung) [3]): 1200 nM
- IC50 (Calu1 (Lung) [4]): 1400 nM
- IC50 (HT-29 (Colon) [5]): 1100 nM

Compound: (−)-trans-2-(2-Chloro-4-nitrophenyl)-5,7-dihydroxy-8-(2-hydroxymethyl-1-methylpyrrolidin-3-yl)-chromen-4-one hydrochloride [Example 97-(D)]
- IC50 (CDK4-cyclin D1): 1 µM
- IC50 (CDK2-cyclin E): > 10 µM
- IC50 (HT-29 (Colon) [2]): 10 µM

Compound: (+)-trans-2-(2-Chlorophenyl)-5,7-dihydroxy-8-(2-hydroxymethyl-1-methyl-pyrrolidin-3-yl)-chromen-4-one hydrochloride [Example 10]
- IC50 (CDK4-cyclin D1): 0.065 µM
- IC50 (CDK2-cyclin E): 2.8 µM
- IC50 (A-549 (Lung) [1]): 0.18 µM
- IC50 (Calu1 (Lung) [6]): < 0.3 µM
- IC50 (HT-29 (Colon) [2]): 0.68 µM
- IC50 (A-549 (Lung) [3]): 700 nM
- IC50 (Calu1 (Lung) [4]): 880 nM
- IC50 (HT-29 (Colon) [5]): 580 nM

- melting point: 253 to 254 °C
Compound: CN1CC[C@@H](c2c(O)cc(O)c3c(=O)cc(-c4cc(F)ccc4Cl)oc23)[C@@H]1CO

- melting point: 91 to 93 °C
Compound: COc1cc(OC)c2c(=O)cc(-c3ccccc3Cl)oc2c1[C@@H]1CCN(C)[C@H]1CO
